PMC3280428 (Journal of Molecular Biology, 2011)
“And” between values parts separate entries of the source, which are not always exact repeats. Equal entries are not always repeated.

Assays:
[1] = Cytotoxicity; assay type: cell-based; conditions: human
[2] = target: T1, KIAA1718 Jumonji domain (residues 92–488) (Homo sapiens, UniProt Q6ZMT4); experiment: Mass-spectrometry-based demethylation inhibition assay, KIAA1718 Jumonji domain; assay type: biochemical
T1 sequence (Q6ZMT4 92-488): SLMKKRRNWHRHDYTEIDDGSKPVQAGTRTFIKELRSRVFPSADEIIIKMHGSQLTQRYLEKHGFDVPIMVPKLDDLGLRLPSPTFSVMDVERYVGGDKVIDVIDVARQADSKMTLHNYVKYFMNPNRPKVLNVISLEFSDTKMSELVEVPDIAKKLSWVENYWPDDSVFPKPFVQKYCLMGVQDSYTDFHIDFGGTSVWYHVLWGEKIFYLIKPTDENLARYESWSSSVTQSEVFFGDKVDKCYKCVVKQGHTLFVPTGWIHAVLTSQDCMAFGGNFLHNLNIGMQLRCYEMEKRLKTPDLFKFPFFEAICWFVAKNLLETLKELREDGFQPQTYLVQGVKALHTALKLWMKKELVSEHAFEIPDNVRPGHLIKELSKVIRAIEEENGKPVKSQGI

[3] = Cytotoxicity; assay type: cell-based; conditions: 129S2/SvPasCrl, mouse

Which CC50 at 24 h [1] does the source give for `COc1cc2nc(N3CCCN(C)CC3)nc(NC3CCN(Cc4ccccc4)CC3)c2cc1OC` [BIX-01294] here?
Its CC50 at 24 h is 3.2 µM.

And the IC50 [2]?
The IC50 was 16.5 µM and ~16.5 µM.

What about the Ki [2] of the same compound?
The Ki was 15.3 µM.

What about the CC50 at 24 h [3] of the same compound?
Its CC50 at 24 h is 7.4 µM.
